Data from patent US8927717B1, “Thiochromeno[2,3-c]quinolin-12-one derivatives, preparation method and application thereof” (National Defense Medical Center, priority 2014, dated 2015).

What was measured:
Assay type in all cases: cell-based
[1] = tested on: K-562; settings: K-562
[2] = tested on: MOLT-4; settings: MOLT-4
[3] = tested on: SR; settings: SR
[4] = tested on: A549/ATCC; settings: A549/ATCC
[5] = tested on: HOP-62; settings: HOP-62
[6] = tested on: NCI-H226; settings: NCI-H226
[7] = tested on: NCI-H23; settings: NCI-H23
[8] = tested on: NCI-H522; settings: NCI-H522
[9] = tested on: HCT-15; settings: HCT-15
[10] = tested on: HT29; settings: HT29
[11] = tested on: KM12; test: cells; settings: KM12
[12] = tested on: SW-620; settings: SW-620
[13] = tested on: SF-268; settings: SF-268
[14] = tested on: SF-295; settings: SF-295
[15] = tested on: SNB-19; settings: SNB-19
[16] = tested on: SNB-75; settings: SNB-75
[17] = tested on: U251; settings: U251, five dose
[18] = tested on: LOX IMVI; settings: LOX IMVI, five dose
[19] = tested on: MALME-3M; settings: MALME-3M
[20] = tested on: MDA-MB-435; settings: MDA-MB-435
[21] = tested on: SK-MEL-28; settings: SK-MEL-28
[22] = tested on: UACC-62; settings: UACC-62
[23] = tested on: OVCAR-5; settings: OVCAR-5
[24] = tested on: OVCAR-8; settings: OVCAR-8
[25] = tested on: NCI/ADR-RES; settings: NCI/ADR-RES
[26] = tested on: 786-0; settings: 786-0
[27] = tested on: A498; settings: A498
[28] = tested on: ACHN; settings: ACHN
[29] = tested on: RXF 393; settings: RXF 393; 10^−5 molar
[30] = tested on: SN12C; settings: SN12C
[31] = tested on: TK-10; settings: TK-10
[32] = tested on: UO-31; settings: UO-31
[33] = tested on: DU-145; settings: DU-145
[34] = tested on: MCF7; settings: MCF7
[35] = tested on: MDA-MB-231/ATCC; settings: MDA-MB-231/ATCC
[36] = tested on: HS 578T; settings: HS 578T
[37] = tested on: T-47D; settings: T-47D
[38] = tested on: MDA-MB-486; settings: MDA-MB-486
[39] = tested on: 60 cancer cell lines; test: NCI 60-cell screen, SRB, whole panel (mean, delta, range)
[40] = Homo sapiens, five dose, read-out: LC50 (the source's name)

In the case of O=c1c2cc(Cl)ccc2sc2c(NCc3ccccc3)nc3ccccc3c12 [Compound N25, 6-(Benzylamino)-10-chloro-12H-thiochromeno[2,3-c]quinolin-12-one], the GI50 ([1]; Homo sapiens, K562, five dose) is reported as > 100 µM, the CC50 ([1]; Homo sapiens, K562, five dose, read-out: LC50 (the source's name)) is reported as > 100 µM and the Growth percent ([1]; 10^−5 molar) is reported as 90.61%. The TGI ([1]; five dose) was >100 µM, the GI50 ([2]; Homo sapiens, five dose) was > 100 µM and the CC50 [2, 40] was > 100 µM. For the same compound, the Growth percent ([2]; 10^−5 molar) was 92.42%, the TGI ([2]; five dose) was >100 µM and the GI50 ([3]; Homo sapiens, five dose) was > 100 µM. For the same compound, the LC50 (50% lethal concentration) ([3]; Homo sapiens, five dose) was > 100 µM, the Growth percent ([3]; 10^−5 molar) was 85.46% and the TGI ([3]; five dose) was >100 µM. For the same compound, the Growth percent ([4]; 10^−5 molar) was 68.33%, the TGI ([4]; five dose) was >100 µM and the GI50 ([4]; Homo sapiens, five dose) was 14.4 µM. The LC50 ([4]; Homo sapiens, five dose) was > 100 µM, the Growth percent ([5]; 10^−5 molar) was 66.53% and the TGI ([5]; five dose) was 5.92 µM. The GI50 ([5]; Homo sapiens, five dose) was 2.43 µM, the LC50 (lethal concentration 50) ([5]; Homo sapiens, five dose) was 27.7 µM and the GI50 ([6]; Homo sapiens, five dose) was 1.84 µM. The LC50 (concentration giving 50% net cell kill) ([6]; Homo sapiens, five dose) was > 100 µM, the Growth percent ([6]; 10^−5 molar) was 79.35% and the GI50 ([7]; Homo sapiens, five dose) was 15.2 µM. The LC50 (lethal concentration 50%) ([7]; Homo sapiens, five dose) was > 100 µM, the Growth percent ([7]; 10^−5 molar) was 74.37% and the TGI ([7]; five dose) was >100 µM. For the same compound, the GI50 ([8]; Homo sapiens, five dose) was 25.3 µM, the LC50 (concentration causing 50% net cell kill) ([8]; Homo sapiens, five dose) was > 100 µM and the Growth percent ([8]; 10^−5 molar) was 75.71%. The TGI ([8]; five dose) was >100 µM, the Growth percent ([9]; 10^−5 molar) was 71.76% and the TGI ([9]; five dose) was >100 µM. The GI50 ([9]; Homo sapiens, five dose) was 8.75 µM, the LC50 ([9]; Homo sapiens, five dose) was > 100 µM and the Growth percent ([10]; 10^−5 molar) was 77.16%. The TGI ([10]; five dose) was >100 µM, the LC50 (concentration killing 50% of cells) ([10]; Homo sapiens, HT-29, five dose) was > 100 µM and the GI50 ([11]; Homo sapiens, five dose) was 48.3 µM. The LC50 ([11]; Homo sapiens, five dose) was > 100 µM, the Growth percent ([11]; 10^−5 molar) was 80.34% and the TGI ([11]; five dose) was >100 µM. For the same compound, the LC50 ([12]; Homo sapiens, five dose) was > 100 µM, the Growth percent ([12]; 10^−5 molar) was 78.97% and the TGI ([12]; five dose) was >100 µM. The GI50 ([13]; Homo sapiens, five dose) was 13.8 µM, the CC50 [13, 40] was > 100 µM and the Growth percent ([13]; 10^−5 molar) was 73.68%. The TGI ([13]; five dose) was >100 µM, the GI50 ([14]; Homo sapiens, five dose) was 3.5 µM and the LC50 ([14]; Homo sapiens, five dose) was > 100 µM. The Growth percent ([14]; 10^−5 molar) was 74.33%, the TGI ([14]; five dose) was 16.50 µM and the GI50 ([15]; Homo sapiens, five dose) was 8.56 µM. The LC50 (concentration killing 50% of cells) ([15]; Homo sapiens, five dose) was > 100 µM, the Growth percent ([15]; 10^−5 molar) was 102.93% and the TGI ([15]; five dose) was >100 µM. It also gave a GI50 ([16]; Homo sapiens, five dose) of 1.45 µM, an LC50 ([16]; Homo sapiens, five dose) of 9.91 µM and a Growth percent ([16]; 10^−5 molar) of 14.83%. For the same compound, the TGI ([16]; five dose) was 3.78 µM, the GI50 ([17]; Homo sapiens, U-251) was 4.41 µM and the LC50 ([17]; Homo sapiens, U-251) was > 100 µM. For the same compound, the TGI [17] was 25.10 µM, the GI50 ([18]; Homo sapiens) was > 100 µM and the LC50 ([18]; Homo sapiens) was > 100 µM. The TGI [18] was >100 µM, the GI50 ([19]; Homo sapiens, five dose) was > 100 µM and the LC50 ([19]; Homo sapiens, five dose) was > 100 µM. The Growth percent ([19]; 10^−5 molar) was 77.59%, the TGI ([19]; five dose) was >100 µM and the GI50 ([20]; Homo sapiens, five dose) was > 100 µM. The CC50 [20, 40] was > 100 µM, the Growth percent ([20]; 10^−5 molar) was 89.58% and the TGI ([20]; five dose) was >100 µM. For the same compound, the LC50 ([21]; Homo sapiens, five dose) was > 100 µM, the Growth percent ([21]; 10^−5 molar) was 84.20% and the TGI ([21]; five dose) was >100 µM. The GI50 ([22]; Homo sapiens, five dose) was 16.9 µM, the CC50 [22, 40] was > 100 µM and the Growth percent ([22]; 10^−5 molar) was 89.20%. For the same compound, the TGI ([22]; five dose) was >100 µM, the GI50 ([23]; Homo sapiens, five dose) was > 100 µM and the CC50 [23, 40] was > 100 µM. For the same compound, the Growth percent ([23]; 10^−5 molar) was 91.27%, the TGI ([23]; five dose) was >100 µM and the GI50 ([24]; Homo sapiens, five dose) was 7.75 µM. The CC50 [24, 40] was > 100 µM, the Growth percent ([24]; 10^−5 molar) was 68.33% and the TGI ([24]; five dose) was >100 µM. The GI50 ([25]; Homo sapiens, five dose) was 43 µM, the CC50 [25, 40] was > 100 µM and the Growth percent ([25]; 10^−5 molar) was 77.36%. For the same compound, the TGI ([25]; five dose) was >100 µM, the Growth percent ([26]; 10^−5 molar) was 72.48% and the TGI ([26]; five dose) was 48.70 µM. For the same compound, the GI50 ([26]; Homo sapiens, five dose) was 9.55 µM, the CC50 [26, 40] was > 100 µM and the Growth percent ([27]; 10^−5 molar) was 86.46%. For the same compound, the TGI ([27]; five dose) was 39.20 µM, the GI50 ([27]; Homo sapiens, five dose) was 8.05 µM and the CC50 [27, 40] was > 100 µM. The Growth percent ([28]; 10^−5 molar) was 51.82%, the TGI ([28]; five dose) was >100 µM and the GI50 ([28]; Homo sapiens, five dose) was 4.02 µM. For the same compound, the CC50 [28, 40] was > 100 µM, the Growth percent [29] was 71.08% and the GI50 ([30]; Homo sapiens, five dose) was 24.9 µM. The CC50 [30, 40] was > 100 µM, the Growth percent ([30]; 10^−5 molar) was 87.80% and the TGI ([30]; five dose) was >100 µM. The GI50 ([31]; Homo sapiens, five dose) was 5.02 µM, the CC50 [31, 40] was > 100 µM and the Growth percent ([31]; 10^−5 molar) was 75.80%. The TGI ([31]; five dose) was 22.30 µM, the GI50 ([32]; Homo sapiens, five dose) was 57.8 µM and the CC50 [32, 40] was > 100 µM. The Growth percent ([32]; 10^−5 molar) was 65.31%, the TGI ([32]; five dose) was >100 µM and the Growth percent ([33]; 10^−5 molar) was 74.80%. For the same compound, the TGI ([33]; five dose) was >100 µM, the GI50 ([33]; Homo sapiens, five dose) was 5.5 µM and the CC50 [33, 40] was > 100 µM. For the same compound, the GI50 ([34]; Homo sapiens, five dose) was 0.04 µM, the CC50 [34, 40] was > 100 µM and the Growth percent ([34]; 10^−5 molar) was 16.01%. The TGI ([34]; five dose) was 18.60 µM, the GI50 ([35]; Homo sapiens, five dose) was 2.36 µM and the CC50 [35, 40] was > 100 µM. For the same compound, the Growth percent ([35]; 10^−5 molar) was 32.67%, the TGI ([35]; five dose) was 34.80 µM and the Growth percent ([36]; 10^−5 molar) was 34.73%. The TGI ([36]; five dose) was 21.20 µM, the GI50 ([36]; Homo sapiens, five dose) was 2.94 µM and the CC50 [36, 40] was > 100 µM. The GI50 ([37]; Homo sapiens, T47D, five dose) was 1.26 µM, the CC50 ([37]; Homo sapiens, T47D, five dose, read-out: LC50 (the source's name)) was > 100 µM and the Growth percent ([37]; 10^−5 molar) was 38.08%. It also gave a TGI ([37]; five dose) of 7.11 µM, a GI50 ([38]; 60 cell, five dose) of 0.03 µM and a CC50 ([38]; 60 cell, five dose, read-out: LC50 (the source's name)) of 63.1 µM. For the same compound, the Growth percent ([38]; 10^−5 molar) was −9.83%, the TGI ([38]; five dose) was 0.66 µM and the GI50 ([39]; 60 cell, mean over panel, five dose) was 11.2 µM. For the same compound, the CC50 ([39]; 60 cell, mean over panel, five dose, read-out: LC50, Mean) was 91.2 µM, the “Growth percent, Delta” value ([39]; delta over panel, 10^−5 molar) was 81.80% and the “Growth percent, Mean” value ([39]; mean over panel, 10^−5 molar) was 71.97%. The “TGI, Mean” value ([39]; mean over panel, five dose) was 53.70 µM and the “Growth percent, Range” value ([39]; range over panel, 10^−5 molar) was 112.76%.
